The text below walks through data of ChEMBL document CHEMBL1145368, “Directed molecular screening for RecA ATPase inhibitors” (Bioorg Med Chem Lett, 2007).

Molecules are shown by their SMILES. Activity calls are given as the source filed them. No cut-off for these calls is given here.

A word on the IC50: it is the midpoint of a concentration-inhibition curve. Lower therefore signals inhibition by little substance.

Experiment [1] concerns Escherichia coli. The experiment can be described thus: (§1) Inhibition of Escherichia coli RecA by ADP-linked fluorescent ATPase assay.
The nature of experiment [2]: as §1.
The subject of experiment [3] is Escherichia coli. The experiment can be described thus: Inhibition of RecA-mediated DNA strand exchange reaction assessed as abrogation of nicked circular dsDNA formation at 100 uM.

Take `O=S(=O)(O)c1cccc2c(-c3ccc(Nc4ccccc4)c4c(S(=O)(=O)O)cccc34)ccc(Nc3ccccc3)c12`: in experiment [1], the result was Active.

`Cc1ccc(C(=O)Nc2ccc(S(=O)(=O)O)c3cc(S(=O)(=O)O)cc(S(=O)(=O)O)c23)cc1NC(=O)c1cccc(NC(=O)Nc2cccc(C(=O)Nc3cc(C(=O)Nc4ccc(S(=O)(=O)O)c5cc(S(=O)(=O)O)cc(S(=O)(=O)O)c45)ccc3C)c2)c1` [SURAMIN]: the IC50 in experiment [2] was found to be 2000 nM. Further, the result in experiment [3] was Active.

With `Nc1c(/N=N/c2ccc(-c3ccc(/N=N/c4cc(S(=O)(=O)O)c5ccccc5c4N)cc3)cc2)cc(S(=O)(=O)O)c2ccccc12`, in experiment [1], the outcome was Active.

With `COc1cc(/C=C/C(=O)CC(=O)/C=C/c2ccc(O)c(OC)c2)ccc1O`, the outcome in experiment [1] was inactive.
